Laboratory results from publication PMC8260592 (Scientific Reports, 2021).
Values after ≈ are worked out from the molar mass of the structure shown. “Also recorded” adds a separate entry of the source. Read-outs that look alike come from different tables or passages of the source.

What was measured:
[1] = target: AChE (Type VI-S from Electrophorus electricus) (Electrophorus electricus, UniProt O42275); experiment: biochemical; conditions: for SI: IC50 for BChE divided by IC50 for AChE; for remaining activity at 10 µM: read-out: Residual activity at 10 µM (%) AChE; for inhibition at 10 µM: read-out: Inhibition of AChE
AChE (Type VI-S from Electrophorus electricus), sequence (O42275 24-633): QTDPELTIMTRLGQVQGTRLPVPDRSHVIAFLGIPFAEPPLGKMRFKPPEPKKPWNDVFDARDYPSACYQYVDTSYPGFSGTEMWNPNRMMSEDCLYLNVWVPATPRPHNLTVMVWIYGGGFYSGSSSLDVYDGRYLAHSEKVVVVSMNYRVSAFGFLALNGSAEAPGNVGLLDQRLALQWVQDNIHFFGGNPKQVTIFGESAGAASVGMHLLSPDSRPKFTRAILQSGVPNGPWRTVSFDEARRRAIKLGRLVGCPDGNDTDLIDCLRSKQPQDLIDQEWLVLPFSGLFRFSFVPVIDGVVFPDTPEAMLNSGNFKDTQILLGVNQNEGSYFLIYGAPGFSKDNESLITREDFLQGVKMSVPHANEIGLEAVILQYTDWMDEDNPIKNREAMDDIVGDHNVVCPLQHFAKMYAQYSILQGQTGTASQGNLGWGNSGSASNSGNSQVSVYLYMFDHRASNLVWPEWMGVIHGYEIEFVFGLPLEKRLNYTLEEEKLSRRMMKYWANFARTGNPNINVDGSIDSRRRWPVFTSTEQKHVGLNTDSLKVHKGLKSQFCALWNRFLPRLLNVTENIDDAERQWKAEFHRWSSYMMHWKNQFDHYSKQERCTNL
Description: (§1) AChE and BChE inhibitory activities were measured after preincubating enzymes with inhibitors for 15 min before adding substrates (ATCI and BTCI, respectively) and DTNB. AChE activities were assayed as previously described, with slight modification[21],[22]. […] MAO-A and MAO-B activities were determined using a continuous spectrophotometric method, as described previously[23],[24]. […] Reaction rates are expressed as changes in absorbance per min. […]

BChE (equine serum) = target: T1, BChE (equine serum) (Equus caballus, UniProt P81908); experiment: biochemical; conditions: for remaining activity at 10 µM: read-out: Residual activity at 10 µM (%) BChE
T1 construct: BChE (equine serum); purchased Sigma-Aldrich; host or cells: equine serum
T1 sequence (P81908 whole entry): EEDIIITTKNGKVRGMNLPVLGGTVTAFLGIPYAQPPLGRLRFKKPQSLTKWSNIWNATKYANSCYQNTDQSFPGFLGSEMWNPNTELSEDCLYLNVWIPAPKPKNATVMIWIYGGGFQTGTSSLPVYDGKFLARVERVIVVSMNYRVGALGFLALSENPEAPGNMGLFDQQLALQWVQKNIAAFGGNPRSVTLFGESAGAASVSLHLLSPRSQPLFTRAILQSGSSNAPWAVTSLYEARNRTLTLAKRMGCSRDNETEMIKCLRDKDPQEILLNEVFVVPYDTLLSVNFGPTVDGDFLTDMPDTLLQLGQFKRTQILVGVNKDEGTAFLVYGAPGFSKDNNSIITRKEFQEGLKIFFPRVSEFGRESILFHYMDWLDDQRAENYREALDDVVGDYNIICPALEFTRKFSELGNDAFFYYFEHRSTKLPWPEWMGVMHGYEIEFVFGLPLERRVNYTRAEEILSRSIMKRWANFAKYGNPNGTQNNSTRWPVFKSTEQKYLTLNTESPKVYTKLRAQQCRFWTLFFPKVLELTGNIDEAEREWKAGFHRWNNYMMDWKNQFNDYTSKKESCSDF
Description: as §1

MAO-B [2] = target: T2, MAO-B (Homo sapiens, UniProt P27338); experiment: biochemical; conditions: for IC50: read-out: IC50 (µM) MAO-B; for remaining activity at 10 µM: read-out: Residual activity at 10 µM (%) MAO-B
T2 construct: purchased Sigma-Aldrich
T2 sequence (P27338 1-520): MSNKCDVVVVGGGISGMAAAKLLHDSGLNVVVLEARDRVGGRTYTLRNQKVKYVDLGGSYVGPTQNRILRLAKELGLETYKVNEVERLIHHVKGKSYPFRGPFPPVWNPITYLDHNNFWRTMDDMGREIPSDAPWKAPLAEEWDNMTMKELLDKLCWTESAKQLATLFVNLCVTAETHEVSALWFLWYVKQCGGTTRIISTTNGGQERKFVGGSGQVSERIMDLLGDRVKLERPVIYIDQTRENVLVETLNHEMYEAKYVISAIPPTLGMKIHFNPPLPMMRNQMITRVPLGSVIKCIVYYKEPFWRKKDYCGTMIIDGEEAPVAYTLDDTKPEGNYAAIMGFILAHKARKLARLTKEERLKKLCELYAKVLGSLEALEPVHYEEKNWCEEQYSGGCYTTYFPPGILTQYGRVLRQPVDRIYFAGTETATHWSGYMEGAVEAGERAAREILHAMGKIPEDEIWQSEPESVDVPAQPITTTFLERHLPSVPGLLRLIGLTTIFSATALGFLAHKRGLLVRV
Description: (§2) AChE and BChE inhibitory activities were measured after preincubating enzymes with inhibitors for 15 min before adding substrates (ATCI and BTCI, respectively) and DTNB. AChE activities were assayed as previously described, with slight modification[21],[22]. […] MAO-A and MAO-B activities were determined using a continuous spectrophotometric method, as described previously[23],[24]. […] Reaction rates are expressed as changes in absorbance per min.
(§3) Inhibitory patterns and Ki values were determined using Lineweaver–Burk (LB) plots and secondary plots of LB slopes.

Recombinant human MAO-A = target: T3, Recombinant human MAO-A (Homo sapiens, UniProt P21397); experiment: biochemical; conditions: for IC50: read-out: IC50 (µM) MAO-A; for remaining activity at 10 µM: read-out: Residual activity at 10 µM (%) MAO-A
T3 construct: purchased Sigma-Aldrich
T3 sequence (P21397 1-527): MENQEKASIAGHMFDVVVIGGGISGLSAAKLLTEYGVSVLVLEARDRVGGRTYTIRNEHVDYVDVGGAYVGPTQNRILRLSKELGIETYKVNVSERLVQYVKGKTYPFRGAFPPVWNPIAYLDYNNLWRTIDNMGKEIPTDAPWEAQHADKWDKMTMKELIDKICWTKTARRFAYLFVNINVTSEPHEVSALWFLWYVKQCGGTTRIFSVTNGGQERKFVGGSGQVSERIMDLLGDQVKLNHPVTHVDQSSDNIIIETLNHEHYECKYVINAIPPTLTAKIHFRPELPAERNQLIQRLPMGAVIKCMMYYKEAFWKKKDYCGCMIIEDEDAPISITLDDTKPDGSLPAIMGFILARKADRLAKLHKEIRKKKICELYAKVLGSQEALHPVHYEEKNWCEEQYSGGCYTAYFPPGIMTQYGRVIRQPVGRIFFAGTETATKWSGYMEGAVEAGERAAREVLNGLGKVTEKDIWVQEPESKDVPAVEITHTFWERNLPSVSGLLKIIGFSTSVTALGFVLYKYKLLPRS
Description: as §2, §3

BACE-1 = target: T4, BACE-1 (Homo sapiens, UniProt P56817); experiment: BACE-1 activity detection kit (fluorescence); assay type: biochemical; conditions: read-out: Residual activity at 10 µM (%) BACE-1
T4 construct: purchased Sigma-Aldrich
T4 sequence (P56817 46-457): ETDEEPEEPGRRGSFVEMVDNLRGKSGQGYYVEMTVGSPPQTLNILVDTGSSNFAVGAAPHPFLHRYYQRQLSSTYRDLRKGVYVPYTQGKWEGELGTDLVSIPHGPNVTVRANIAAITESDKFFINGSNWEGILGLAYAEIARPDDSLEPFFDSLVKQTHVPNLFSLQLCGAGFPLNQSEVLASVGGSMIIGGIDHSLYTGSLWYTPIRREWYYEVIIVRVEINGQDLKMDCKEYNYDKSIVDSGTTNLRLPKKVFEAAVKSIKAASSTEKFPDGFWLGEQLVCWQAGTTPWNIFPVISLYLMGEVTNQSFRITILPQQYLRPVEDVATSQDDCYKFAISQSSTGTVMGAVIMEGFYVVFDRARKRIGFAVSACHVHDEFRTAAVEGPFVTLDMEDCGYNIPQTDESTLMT

AChE [3] = target: T5, AChE (Electrophorus electricus, UniProt O42275); experiment: Reversibility of AChE inhibition by dialysis; assay type: biochemical
T5 sequence (O42275 24-633): as the sequence (O42275 24-633) above
Description: (§4) After preincubating three compounds or reference inhibitors with enzymes for 15 min, residual activities of undialyzed (AU) and dialyzed (AD) samples were expressed as percentages of those of non-inhibitor treated controls. Reversibilities were assessed using AU and AD values and compared with those of reference compounds.
(§5) After preincubating the compounds with enzymes for 15 min, the mixtures were dialyzed for 6 h with two buffer changes. Results are the averages of duplicate or triplicate experiments.

MAO-B [4] = target: T2, MAO-B; experiment: Reversibility of MAO-B inhibition by dialysis; assay type: biochemical
Description: as §4, §5

AChE [5] = target: T5, AChE; experiment: Kinetics of AChE inhibition (Lineweaver-Burk and secondary plots); assay type: biochemical; conditions: for Mode of AChE inhibition: LB plots; for Ki: secondary plots of LB slopes, substrate 0.05-1.0 mM, read-out: Ki for AChE
Description: as §3
Substrate concentrations ranged from 0.05 to 1.0 mM. […] Initial reaction rates are expressed as increases in absorbance per min.

MAO-B [6] = target: T2, MAO-B; experiment: Kinetics of MAO-B inhibition (Lineweaver-Burk and secondary plots); assay type: biochemical
Description: as §3

[7] = tested on: Madin-Darby canine kidney (MDCK) cells; experiment: Cytotoxicity test, CCK-8 assay; conditions: 50 µM, 24 h, CCK-8
Description: (§6) Madin-Darby canine kidney (MDCK) cells and human acute promyelocytic leukemia (HL-60) cells were obtained from the Korean Cell Line Bank (Seoul, Korea). […] Cultures were maintained at 37 °C under 5% CO2, and media were changed every two days.
(§7) Cell viabilities were determined using the CCK-8 assay. Briefly, MDCK cells or HL-60 cells were resuspended at 1 × 10^5 or 3 × 10^5 cells/mL and suspensions (100 µL) were added to wells of a 96-well plate and incubated in 5% CO2 atmosphere at 37 °C for 24 h. After incubation, 100 µL of each medium was treated with compounds at 1, 3, 10, 30, or 50 µM and incubated in 5% CO2 at 37 °C for 24 h. CCK-8 (10 µL/well) was then added to 100 µL aliquots from each cell and incubated 2–4 h. Absorbances were measured at 450 nm using a microplate reader (Versamax, Molecular Devices, San Jose, CA, USA).
(§8) Both cell lines were treated with each compound (at 1, 3, 10, 30, or 50 µM) for 24 h. Culture supernatants were then removed and CCK-8 was added. […] Data are expressed as the means ± SDs of triplicate experiments.

[8] = tested on: human acute promyelocytic leukemia (HL-60) cells; experiment: Cytotoxicity test, CCK-8 assay; conditions: 50 µM, 24 h, CCK-8
Description: as §6, §7, §8

[9] = Cytotoxicity test, CCK-8 assay
Description: as §6, §7, §8

AChE [10] = conditions: cited from earlier work

O=C(OCc1cc(O)c(O[C@@H]2O[C@H](CO)[C@@H](O)[C@H](O)[C@H]2O)c(O)c1)c1cc(O)c(O)c(Oc2c(C(=O)OCc3cc(O)c(O[C@@H]4O[C@H](CO)[C@@H](O)[C@H](O)[C@H]4O)c(O)c3)cc(O)c(O)c2O)c1 [Compound 1, chestanin]
IC50 [1]: 37 ± 3 µM | SI [1]: > 1.1 | remaining activity at 10 µM [1]: 72.5 ± 2.1% | IC50 (BChE (equine serum)): > 40 µM | remaining activity at 10 µM (BChE (equine serum)): 96.2 ± 3.9% | IC50 (MAO-B [2]): > 40 µM | remaining activity at 10 µM (MAO-B [2]): 67.2 ± 8.1% | IC50 (Recombinant human MAO-A): > 40 µM | remaining activity at 10 µM (Recombinant human MAO-A): 91.7 ± 1.6% | remaining activity at 10 µM (BACE-1): 78.9 ± 0.3%

COc1cc2c(=O)oc3c(OC)c(O[C@@H]4O[C@H](CO)[C@@H](O)[C@H](O)[C@H]4O)cc4c(=O)oc(c1OC)c2c34 [Compound 2, 4′-O-(β-D-glucopyranosyl)-3,3′,4-tri-O-methylellagic acid]
IC50 [1]: 46.4 ± 2.7 µM | SI [1]: > 0.9 | remaining activity at 10 µM [1]: 70.5 ± 5% | IC50 (BChE (equine serum)): > 40 µM | remaining activity at 10 µM (BChE (equine serum)): 90.8 ± 4.2% | IC50 (MAO-B [2]): > 40 µM | remaining activity at 10 µM (MAO-B [2]): 60.9 ± 5.2% | IC50 (Recombinant human MAO-A): > 40 µM | remaining activity at 10 µM (Recombinant human MAO-A): 91.3 ± 7.9% | remaining activity at 10 µM (BACE-1): 91.9 ± 1%

COc1cc2c(=O)oc3c(OC)c(O[C@@H]4O[C@@H](C)[C@H](O)[C@@H](O)[C@H]4O)cc4c(=O)oc(c1OC)c2c34 [Compound 3, 4′-O-(α-L-rhamnopyranosyl)-3,3′,4-tri-O-methylellagic acid]
IC50 [1]: 10.1 ± 0.4 µM | SI [1]: > 4.0 | inhibition at 10 µM [1]: ~50% | remaining activity at 10 µM [1]: 55.4 ± 3.4% | IC50 (BChE (equine serum)): > 40 µM | remaining activity at 10 µM (BChE (equine serum)): 83.3 ± 2.1% | inhibition at 10 µM (MAO-B [2]; 10 µM): > 50% | IC50 (MAO-B [2]): 7.27 ± 0.16 µM | remaining activity at 10 µM (MAO-B [2]): 43.2 ± 3.7% | IC50 (Recombinant human MAO-A): > 40 µM | remaining activity at 10 µM (Recombinant human MAO-A): 83 ± 6.3% | remaining activity at 10 µM (BACE-1): 99.7 ± 0.4% | Reversibility of AChE inhibition (AChE [3]): reversibly; also recorded: reversible inhibitors | Reversibility of MAO-B inhibition (MAO-B [4]): reversible inhibitors | Mode of AChE inhibition (AChE [5]): competitively; also recorded: competitive but partly mixed; also recorded: competitive but partially mixed | Ki (AChE [5]): 5.37 ± 0.62 µM | Mode of MAO-B inhibition (MAO-B [6]; LB plots): competitive | Ki (MAO-B [6]; secondary plots of LB slopes, substrate 0.0375-0.6 mM, read-out: Ki for MAO-B): 2.25 ± 0.01 µM | MDCK cell viability [7]: slightly or non-toxic; also recorded: negligible effects; also recorded: non-toxic or slightly toxic | HL-60 cell viability [8]: negligible effects; also recorded: non-toxic or slightly toxic

COc1cc2c(=O)oc3c(OC)c(O)cc4c(=O)oc(c1OC)c2c34 [Compound 4, 3,3′,4-tri-O-methylellagic acid]
IC50 [1]: 10.7 ± 1 µM | SI [1]: > 3.7 | inhibition at 10 µM [1]: ~50% | remaining activity at 10 µM [1]: 53.2% | IC50 (BChE (equine serum)): > 40 µM | remaining activity at 10 µM (BChE (equine serum)): 92.3 ± 2.3% | IC50 (MAO-B [2]): > 40 µM | remaining activity at 10 µM (MAO-B [2]): 89.1 ± 4.1% | IC50 (Recombinant human MAO-A): > 40 µM | remaining activity at 10 µM (Recombinant human MAO-A): 83.1 ± 4.7% | remaining activity at 10 µM (BACE-1): 90.1 ± 0.4% | Reversibility of AChE inhibition (AChE [3]): reversibly; also recorded: reversible inhibitors | Mode of AChE inhibition (AChE [5]): competitively; also recorded: competitive but partly mixed; also recorded: competitive but partially mixed | Ki (AChE [5]): 3.74 ± 0.26 µM | viability at 24 h, 50 µM ([9]; dog, MDCK cells): 67.9% | viability at 24 h, 50 µM ([9]; human, HL-60 cells): 84.6% | MDCK cell viability [7]: slightly or non-toxic; also recorded: non-toxic or slightly toxic | HL-60 cell viability [8]: non-toxic or slightly toxic

COc1cc(/C=C/C(=O)CC(=O)/C=C/c2ccc(O)c(OC)c2)ccc1O [curcumin]
IC50 (AChE [10]; ref 51): 23.5 µM

O=C(O[C@@H]1Cc2c(O)cc(O)cc2O[C@@H]1c1cc(O)c(O)c(O)c1)c1cc(O)c(O)c(O)c1 [epigallocatechin gallate]
IC50 (AChE [10]; ref 52): 14.8 µM
